The target in data set [1] is T1, Microsomal triglyceride transfer protein (MTP) from human small intestine microsome (Homo sapiens, UniProt P55157).
T1 construct: Human small intestine microsome was dialyzed against 10 mM phosphate buffer; tissue Tissue Transforming Technologies, Inc; host or cells: Human small intestine microsomes, dialysed, centrifuged, and the supernatant purified on DEAE Sepharose (FPLC)
The data set can be described thus: Inhibition test of interliposomal triglyceride (TG) transfer activity by MTP. Format: biochemical. To be noted: purified MTP from human small intestine microsome, 14C-triolein donor/acceptor liposomes, 37 °C for 1.5 hours.
From the text: Firstly, in order to prepare the donor, there were volatilized under a stream of nitrogen gas a phosphatidylcholine solution containing phosphatidylcholine labeled with ^3H, a cardiolipin solution, and a triolein solution containing triolein labeled with ^14C (each solution had been already dissolved in an appropriate organic solvent), or in order to prepare the acceptor, there were volatilized under nitrogen flow a phosphatidylcholine solution containing phosphatidylcholine labeled with ^3H and a cardiolipin solution (each solution had been already dissolved in an appropriate organic solvent). An appropriate amount of a reaction buffer (15 mM Tris-HCl buffer containing 1 mM EDTA.Na2, 40 mM NaCl, and 0.5% (w/v) bovine serum albumin, pH 7.4) was added thereto to be emulsified. […] Each of the resulting supernatant was used for donor or acceptor.
Each radioactivity in the acceptor and the donor was measured by liquid scintillation counter, and a mixed solution of the acceptor and the donor was prepared with a reaction buffer so as to be a donor-derived radioactivity of 16,000 dpm/400 µL and a acceptor-derived radioactivity of 4,000 dpm/400 µL. 400 µL of the mixed solution of the donor and the acceptor, 45 µL of the reaction buffer, 50 µL of MTP (20 µg/mL), and 5 µL of a sample dissolved in DMSO (dimethyl sulfoxide) or 5 µL of DMSO was mixed (total amount: 500 µL). The mixture was incubated at 37 °C for 1.5 hours. […] The radioactivity in the acceptor was measured by liquid scintillation counter. The value obtained by subtracting the radioactivity in a blank group from the radioactivity in the acceptor of a DMSO group was determined as MTP-mediated TG transfer activity, and it was compared with the value obtained by subtracting the radioactivity in the blank group from the radioactivity in a sample group. […] Inhibition rate (%) was calculated from values obtained according to the following equation. Inhibition rate(%) = (1 minus ((radioactivity of sample group minus radioactivity of blank group)/(radioactivity of DMSO group minus radioactivity of blank group))) × 100.

The nature of data set [2]: Metabolic stability test in liver S9. To be noted: pH 7.4, human liver S9 2 mg protein/mL, LC/MS; for remaining at 10 min: unchanged form after 10 minutes at 37°C, read-out: Remaining rate in human liver S9 (%/10min); for remaining at 1 h: unchanged form after 60 minutes at 37°C, read-out: Remaining rate in human liver S9 (%/60min). In kind it is in vitro ADME. In outline:
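Compound from DMSO solution was incubated at 37°C with human liver S9 (final 2 mg protein/mL) in 100 mM potassium phosphate pH 7.4 with an NADPH-regenerating system for 0, 10 and 60 minutes. Reactions were stopped with acetonitrile/0.1% formic acid. Unchanged compound was measured by LC/MS as remaining rate (%) relative to zero time.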

The nature of data set [3]: Metabolic stability test in plasma. Format: in vitro ADME, human. The note with it: LC/MS; for remaining at 10 min: unchanged form after 10 minutes at 37°C in human plasma, read-out: Remaining rate in human plasma (%/10min); for remaining at 1 h: unchanged form after 60 minutes at 37°C in human plasma, read-out: Remaining rate in human plasma (%/60min). The procedure, abridged:
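Remaining rate (%) versus zero time was derived from LC/MS measurement of parent compound after centrifugation. Plasma from human, mouse and hamster received DMSO-dissolved compound and was held at 37°C for 0, 10 or 60 minutes before acetonitrile containing formic acid (final 0.1%) stopped the reaction.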

The nature of data set [4]: Stability test in buffer (pH 7.4). Format: physicochemical. The note with it: phosphate buffer/acetonitrile 7:3, 100 mM potassium phosphate buffer (pH 7.4) and acetonitrile 7:3 (v/v), LC/MS; for remaining at 10 min: 10 minutes at 37°C, read-out: Buf. remaining rate (%/10min); for remaining at 1 h: 60 minutes at 37°C, read-out: Buf. remaining rate (%/60min). The procedure, abridged:
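Parent compound measured by LC/MS after 0, 10 or 60 min at 37°C in a 7:3 (v/v) mix of 100 mM potassium phosphate buffer and acetonitrile, with the reaction stopped by acetonitrile plus formic acid (final 0.1%). Percentage remaining is expressed relative to the zero-time amount.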

T1 sequence (P55157 19-894): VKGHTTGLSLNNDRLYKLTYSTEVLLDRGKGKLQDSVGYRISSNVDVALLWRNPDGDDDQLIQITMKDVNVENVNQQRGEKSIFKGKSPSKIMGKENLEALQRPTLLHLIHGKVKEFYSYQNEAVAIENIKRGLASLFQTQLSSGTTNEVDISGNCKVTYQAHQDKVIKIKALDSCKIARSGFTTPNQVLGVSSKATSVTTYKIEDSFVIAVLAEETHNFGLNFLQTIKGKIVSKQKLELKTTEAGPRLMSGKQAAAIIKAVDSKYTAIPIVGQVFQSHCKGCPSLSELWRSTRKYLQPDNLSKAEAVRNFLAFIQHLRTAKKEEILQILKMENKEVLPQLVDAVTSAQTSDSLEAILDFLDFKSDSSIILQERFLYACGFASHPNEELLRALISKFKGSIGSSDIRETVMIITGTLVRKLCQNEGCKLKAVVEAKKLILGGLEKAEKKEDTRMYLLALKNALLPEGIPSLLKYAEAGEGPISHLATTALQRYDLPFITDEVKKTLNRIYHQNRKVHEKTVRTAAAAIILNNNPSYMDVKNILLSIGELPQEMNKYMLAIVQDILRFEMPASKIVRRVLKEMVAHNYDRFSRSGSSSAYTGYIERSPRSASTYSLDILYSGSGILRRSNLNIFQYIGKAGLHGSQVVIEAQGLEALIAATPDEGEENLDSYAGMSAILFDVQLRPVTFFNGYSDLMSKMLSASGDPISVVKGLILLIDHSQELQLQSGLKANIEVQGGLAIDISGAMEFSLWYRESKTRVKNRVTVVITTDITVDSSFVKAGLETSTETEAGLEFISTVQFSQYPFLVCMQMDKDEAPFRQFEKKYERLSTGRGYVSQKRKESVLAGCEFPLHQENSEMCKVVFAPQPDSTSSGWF
T1 sequence (P07237 18-508 partner): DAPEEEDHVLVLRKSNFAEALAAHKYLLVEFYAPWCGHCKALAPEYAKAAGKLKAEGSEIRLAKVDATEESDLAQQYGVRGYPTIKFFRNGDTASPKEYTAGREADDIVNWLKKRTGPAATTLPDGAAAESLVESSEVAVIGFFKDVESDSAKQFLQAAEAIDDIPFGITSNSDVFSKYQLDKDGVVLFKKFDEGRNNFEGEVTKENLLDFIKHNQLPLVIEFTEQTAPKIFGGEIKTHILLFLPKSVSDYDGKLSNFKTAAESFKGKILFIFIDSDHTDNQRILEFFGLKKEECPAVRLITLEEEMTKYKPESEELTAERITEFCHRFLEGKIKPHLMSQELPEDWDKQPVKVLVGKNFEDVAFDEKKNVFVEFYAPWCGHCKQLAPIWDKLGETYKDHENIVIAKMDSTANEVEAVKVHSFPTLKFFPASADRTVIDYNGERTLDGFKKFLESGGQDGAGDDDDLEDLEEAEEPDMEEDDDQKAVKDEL

In the case of `COC(=O)c1ccc(OC(=O)CCCc2ccc(NC(=O)c3ccc(C)cc3-c3ccc(C(F)(F)F)cc3)c(C(=O)N(C)C)c2)cc1` [Compound 1-9, 4-(4-{3-dimethylcarbamoyl-4-[(5-methyl-4'-trifluoromethylbiphenyl-2-carbonyl)amino]phenyl}butyryloxy) benzoic acid methyl ester], in data set [1], the “Human intestine MTP (IC50(nM))” value is reported as “++ +”. Moreover, the remaining at 10 min in data set [2] was found to be 0%; in data set [3], 34%; in data set [4], 94%. Also, the remaining at 1 h in data set [2] is 0%; in data set [3], 0%; in data set [4] it was 97%.

Take `COC(=O)c1ccc(OC(=O)CCCc2ccc(NC(=O)c3ccc(C)nc3-c3ccc(C(F)(F)F)cc3)c(C(=O)N(C)C)c2)c(C(=O)OC)c1` [Compound 1-70, 4-[4-(3-dimethylcarbamoyl-4-{[6-methyl-2-(4-trifluoromethylphenyl)pyridine-3-carbonyl]amino}phenyl)butyryloxy]isophthalic acid dimethyl ester]: in data set [1], the “Human intestine MTP (IC50(nM))” value is given as “+ ++”. For the same compound, the results for the remaining at 10 min in data set [2], in data set [3] and in data set [4] were 0%, 0% and 101%, respectively. The remaining at 1 h in data set [2] came to 0%; in data set [3], 0%; in data set [4], 104%.

With `CCOC(=O)c1cc(OC)c(OC(=O)CCCc2ccc(NC(=O)c3ccc(C)nc3-c3ccc(C(F)(F)F)cc3)c(C(=O)N(C)C)c2)c(C(=O)OC)c1` [Compound 1-54, 4-[4-(3-dimethylcarbamoyl-4-{[6-methyl-2-(4-trifluoromethylphenyl)pyridine-3-carbonyl]amino}phenyl)butyryloxy]-5-methoxyisophthalic acid 1-ethyl ester 3-methyl ester], in data set [1], the “Human intestine MTP (IC50(nM))” value was “+ ++”. Also, the values for the remaining at 10 min in data set [2], in data set [3] and in data set [4] were 10%, 0% and 97%, respectively. Besides, the remaining at 1 h is 2% in data set [2], 0% in data set [3] and 105% in data set [4].

Regarding `CCCOC(=O)c1cc(Cl)c(OC(=O)CCCc2ccc(NC(=O)c3ccc(C)nc3-c3ccc(C(F)(F)F)cc3)c(C(=O)N(C)C)c2)c(OC)c1` [Compound 1-75, 3-chloro-4-[4-(3-dimethylcarbamoyl-4-{[6-methyl-2-(4-trifluoromethylphenyl)pyridine-3-carbonyl]amino}phenyl)butyryloxy]-5-methoxybenzoic acid propyl ester], the remaining at 10 min was found to be 23% in data set [2], 0% in data set [3] and 113% in data set [4]. In addition, the results for the remaining at 1 h in data set [2], in data set [3] and in data set [4] were 3%, 0% and 124%, respectively.

Consider `CCOc1cc(C(=O)OC)cc(OC)c1OC(=O)CCCc1ccc(NC(=O)c2ccc(C)nc2-c2ccc(C(F)(F)F)cc2)c(C(=O)N(C)C)c1` [Compound 1-49, 4-[4-(3-dimethylcarbamoyl-4-{[6-methyl-2-(4-trifluoromethylphenyl)pyridine-3-carbonyl]amino}phenyl)butyryloxy]-3-ethoxy-5-methoxybenzoic acid methyl ester], for which the remaining at 10 min was 6% in data set [2], 0% in data set [3] and 100% in data set [4]. The values for the remaining at 1 h in data set [2], in data set [3] and in data set [4] were 1%, 0% and 100%, respectively.

With `CC(OC(=O)c1ccc(OC(=O)CCCc2ccc(NC(=O)c3ccccc3-c3ccc(C(F)(F)F)cc3)c(C(=O)N(C)C)c2)cc1)c1ccccc1` (stereo not drawn) [Compound 1-106, 4-[4-(3-dimethylcarbamoyl-4-{(4'-trifluoromethylbiphenyl-2-carbonyl)amino}phenyl)butyryloxy]benzoic acid 1-phenylethyl ester], the results for the remaining at 10 min in data set [2], in data set [3] and in data set [4] were 13%, 49% and 98%, respectively. In addition, the remaining at 1 h worked out at 0% in data set [2], 0% in data set [3] and 99% in data set [4].

On to `COC(=O)c1ccc(-c2nc(C)ccc2C(=O)Nc2ccc(CCCC(=O)Oc3c(C)cc(C(=O)OC)cc3C(=O)OC)cc2C(=O)N(C)C)cc1` [Compound 4-2, 4-[4-(3-dimethylcarbamoyl-4-{[2-(4-methoxycarbonylphenyl)-6-methylpyridine-3-carbonyl]amino}phenyl)butyryloxy]-5-methylisophthalic acid dimethyl ester], for which the remaining at 10 min in data set [2] came to 2%; in data set [3] it was 34%; in data set [4], 98%. Further, the figures for the remaining at 1 h in data set [2], in data set [3] and in data set [4] were 0%, 0% and 97%, respectively.

On to `CN(C)C(=O)c1cc(CCCC(=O)Oc2ccc(C(=O)OCc3ccc(C(=O)OC(C)(C)C)cc3)cc2)ccc1NC(=O)c1ccccc1-c1ccc(C(F)(F)F)cc1` [Compound 1-103, 4-[4-(3-dimethylcarbamoyl-4-{(4'-trifluoromethylbiphenyl-2-carbonyl)amino}phenyl)butyryloxy]benzoic acid 4-(t-butoxycarbonyl)benzyl ester], for which the remaining at 10 min in data set [2] amounted to 48%; in data set [3], 99%; in data set [4], 105%. Moreover, the remaining at 1 h in data set [2] came out at 12%; in data set [3], 55%; in data set [4], 111%.

With `CN(C)C(=O)c1cc(CC(=O)Oc2ccccc2)ccc1NC(=O)c1ccccc1-c1ccc(C(F)(F)F)cc1` [Compound 1-3, {3-dimethylcarbamoyl-4-[(4'-trifluoromethylbiphenyl-2-carbonyl)amino]phenyl}acetic acid phenyl ester], the results for the remaining at 10 min in data set [2], in data set [3] and in data set [4] were 0%, 58% and 101%, respectively. In addition, the remaining at 1 h in data set [2] stood at 0%; in data set [3] it was 5%; in data set [4] it was 98%.

Values taken from patent EP1803452A1, “ESTER DERIVATIVE AND PHARMACEUTICAL USE THEREOF” (Japan Tobacco, Inc., priority 2004, dated 2006).
